Data: patent publication US7868026B2, “Therapeutic compounds” (Pfizer Inc., priority 2005, dated 2011)
Like-named read-outs stand apart in the source and are kept apart here.

Key:
Assay type in all cases: biochemical
CYP3A4 [1] = biological target: T1, CYP3A4 (Homo sapiens, UniProt P08684); assay: Determination of IC50 against CYP3A4 by measurement of inhibition of testosterone metabolism (human liver microsomes, 6-β-OH-testosterone by LC-MS/MS); design: 0.1 mg/mL human liver microsomes; settings: read-out: IC50 (Testo.)
T1 sequence (P08684 whole entry): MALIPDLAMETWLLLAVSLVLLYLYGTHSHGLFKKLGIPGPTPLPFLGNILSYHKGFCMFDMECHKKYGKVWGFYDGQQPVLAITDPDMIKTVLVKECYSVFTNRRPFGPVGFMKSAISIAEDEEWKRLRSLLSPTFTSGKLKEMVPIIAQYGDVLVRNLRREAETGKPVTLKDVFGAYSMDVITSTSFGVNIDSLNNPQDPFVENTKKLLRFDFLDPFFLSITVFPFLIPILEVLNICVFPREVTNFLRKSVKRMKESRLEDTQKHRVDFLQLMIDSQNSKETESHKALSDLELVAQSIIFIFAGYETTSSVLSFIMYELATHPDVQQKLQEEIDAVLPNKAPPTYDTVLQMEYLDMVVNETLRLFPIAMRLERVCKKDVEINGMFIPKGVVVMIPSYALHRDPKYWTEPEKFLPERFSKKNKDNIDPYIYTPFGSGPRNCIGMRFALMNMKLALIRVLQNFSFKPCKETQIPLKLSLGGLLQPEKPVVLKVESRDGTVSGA
Outline: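 Human liver microsomes (0.1 mg/mL) incubated with 25 μM testosterone and 1 mM NADPH in 100 mM potassium phosphate, pH 7.4, for eight minutes. 6-β-OH-testosterone measured by LC-MS/MS in MRM mode against an internal standard and quantified from a metabolite standard curve.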

CYP3A4 [2] = biological target: T1, CYP3A4; assay: Determination of IC50 against CYP3A4 by measurement of inhibition of midazolam metabolism (human liver microsomes, 1-hydroxymidazolam by LC-MS/MS); design: 0.1 mg/mL human liver microsomes; settings: 2 μM midazolam, 0.1 mg/mL human liver microsomes
Outline: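 Human liver microsomes (0.1 mg/mL) incubated 8 min with 2 μM midazolam and 1 mM NADPH in 100 mM potassium phosphate, pH 7.4. 1-Hydroxymidazolam quantified by LC-MS/MS (MRM) as peak area ratio to internal standard against a metabolite standard curve.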

CYP3A4 [3] = biological target: T1, CYP3A4; assay: Determination of compound Kiapp against recombinant CYP3A4 enzyme (BFC fluorescent substrate)
Outline: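 Recombinant CYP3A4 (5.5 or 8 nM, with or without b5 depending on source) pre-incubated with inhibitor ≥30 min at room temperature in 100 mM sodium phosphate pH 7.0, 5 mM TCEP, 2% DMF. Reaction started with 200 uM NADPH and 5 uM BFC; initial fluorescence rates over 5 min fitted to Morrison tight-binding (non-partial) or Szedlacsek (partial) equations for Kiapp.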

[4] = Baculo. enzyme preparation, read-out: Kiapp (BFC, Baculo.)
[5] = Super. enzyme preparation, read-out: Kiapp (BFC, Super.)

IC50 (CYP3A4 [1]) [nM] | IC50 (CYP3A4 [2]) [nM] | Ki (CYP3A4 [3]; [4]) [nM] | Ki (CYP3A4 [3]; [5]) [nM] | SMILES
27 | 13 | 41.2 | 21.7 | CCC(CC)NC(=O)c1ccccc1S(=O)(=O)Nc1cncc(OC)c1 [Example 193, N-(1-ethylpropyl)-2-{[(5-methoxypyridin-3-yl)amino]sulfonyl}benzamide]
99 | 73 | 376 | 68.5 | COC[C@@H]1[C@@H]2C[C@@H]3[C@H]1CN(C(=O)c1ccccc1S(=O)(=O)Nc1cncc(OC)c1)[C@@H]3C2 [Example 194, 2-{[(3R,3aR,5R,6aR,7R)-7-(methoxymethyl)hexahydro-3,5-methanocyclopenta[b]pyrrol-1(2H)-yl]carbonyl}-N-(5-methoxypyridin-3-yl)benzenesulfonamide]
32 | 15 | 70.8 | 35.6 | CCCN(CC)C(=O)c1ccccc1S(=O)(=O)Nc1cncc(OC)c1 [Example 195, N-ethyl-2-{[(5-methoxypyridin-3-yl)amino]sulfonyl}-N-propylbenzamide]
58 | 51 | 379 | 74.5 | COc1cncc(NS(=O)(=O)c2ccccc2C(=O)N2CCOC(c3c(F)cccc3F)C2)c1 (centres unmarked) [Example 196, 2-{[2-(2,6-difluorophenyl)morpholin-4-yl]carbonyl}-N-(5-methoxypyridin-3-yl)benzenesulfonamide]
11 | 6 | 12.7 | 10.5 | COc1cncc(NS(=O)(=O)c2ccccc2C(=O)NC(CO)Cc2ccc(Cl)cc2)c1 (centres unmarked) [Example 199, N-[1-(4-chlorobenzyl)-2-hydroxyethyl]-2-{[(5-methoxypyridin-3-yl)amino]sulfonyl}benzamide]
21 | 12 | 36.1 | 9.9 | COc1cncc(NS(=O)(=O)c2ccccc2C(=O)NCC2CCCCC2)c1 [Example 200, N-(cyclohexylmethyl)-2-{[(5-methoxypyridin-3-yl)amino]sulfonyl}benzamide]
16 | 9 | 29.3 | 8 | COc1cncc(NS(=O)(=O)c2ccccc2C(=O)NC2C3CC4CC(C3)CC2C4)c1 (centres unmarked) [Example 201, N-2-adamantyl-2-{[(5-methoxypyridin-3-yl)amino]sulfonyl}benzamide]
7 | < 3 | 84.2 | 33.4 | COc1cncc(NS(=O)(=O)c2ccccc2C(=O)NC2CCCC(C)C2)c1 (centres unmarked) [Example 202, 2-{[(5-methoxypyridin-3-yl)amino]sulfonyl}-N-(3-methylcyclohexyl)benzamide]
12 | 5 | 101 | 25.8 | COc1cncc(NS(=O)(=O)c2ccccc2C(=O)NCc2ccc(C#N)cc2Cl)c1 [Example 203, N-(2-chloro-4-cyanobenzyl)-2-{[(5-methoxypyridin-3-yl)amino]sulfonyl}benzamide]
12 | < 3 | 52.5 | 12.6 | COc1cncc(NS(=O)(=O)c2ccccc2C(=O)NC(C)CC(C)C)c1 (centres unmarked) [Example 204, N-(1,3-dimethylbutyl)-2-{[(5-methoxypyridin-3-yl)amino]sulfonyl}benzamide]
27 | < 15.5 | 206 | 41.9 | CCC(C)NC(=O)c1ccccc1S(=O)(=O)Nc1cncc(OC)c1 (centres unmarked) [Example 205, N-(sec-butyl)-2-{[(5-methoxypyridin-3-yl)amino]sulfonyl}benzamide]
19 | 9.5 | 57.3 | 16.1 | CCC(C)CNC(=O)c1ccccc1S(=O)(=O)Nc1cncc(OC)c1 (centres unmarked) [Example 208, 2-{[(5-methoxypyridin-3-yl)amino]sulfonyl}-N-(2-methylbutyl)benzamide]
19 | 4 | 33.6 | 7.9 | COc1cncc(NS(=O)(=O)c2ccccc2C(=O)NC(C(C)C)C(C)C)c1 [Example 211, N-(1-isopropyl-2-methylpropyl)-2-{[(5-methoxypyridin-3-yl)amino]sulfonyl}benzamide]
13 | < 3 | 27.2 | 9.8 | COc1cncc(NS(=O)(=O)c2ccccc2C(=O)NCc2c(F)cccc2Cl)c1 [Example 213, N-(2-chloro-6-fluorobenzyl)-2-{[(5-methoxypyridin-3-yl)amino]sulfonyl}benzamide]

The next lines start with the molecule.

SMILES | IC50 (CYP3A4 [1]) [nM] | IC50 (CYP3A4 [2]) [nM] | Ki (CYP3A4 [3]; [4]) [nM] | Ki (CYP3A4 [3]; [5]) [nM]
COc1cncc(NS(=O)(=O)c2ccccc2C(=O)NCCc2ccc(F)cc2F)c1 [Example 191, N-[2-(2,4-difluorophenyl)ethyl]-2-{[(5-methoxypyridin-3-yl)amino]sulfonyl}benzamide] | 15 | 10 | 59.7 | 5
COc1cncc(NS(=O)(=O)c2ccccc2C(=O)NCc2cccc(Cl)c2)c1 [Example 192, N-(3-chlorobenzyl)-2-{[(5-methoxypyridin-3-yl)amino]sulfonyl}benzamide] | 7 | 7 | 23.7 | 2.7
COc1cncc(NS(=O)(=O)c2ccccc2C(=O)NCCc2cc(F)ccc2F)c1 [Example 197, N-[2-(2,5-difluorophenyl)ethyl]-2-{[(5-methoxypyridin-3-yl)amino]sulfonyl}benzamide] | 18 | 4 | 69.5 | 20.1
COc1cncc(NS(=O)(=O)c2ccccc2C(=O)N(C)Cc2ccccc2F)c1 [Example 198, N-(2-fluorobenzyl)-2-{[(5-methoxypyridin-3-yl)amino]sulfonyl}-N-methylbenzamide] | 10 | < 3 | 41.7 | 16.6
COc1cncc(NS(=O)(=O)c2ccccc2C(=O)NCc2cccc(Cl)c2C)c1 [Example 206, N-(3-chloro-2-methylbenzyl)-2-{[(5-methoxypyridin-3-yl)amino]sulfonyl}benzamide] | 6 | < 3 | 3.6 | 2.9
COc1cncc(NS(=O)(=O)c2ccccc2C(=O)NCc2c(F)cccc2F)c1 [Example 207, N-(2,6-difluorobenzyl)-2-{[(5-methoxypyridin-3-yl)amino]sulfonyl}benzamide] | 24 | 5 | 105 | 19.1
COc1cncc(NS(=O)(=O)c2ccccc2C(=O)NCCC2CCCC2)c1 [Example 209, N-(2-cyclopentylethyl)-2-{[(5-methoxypyridin-3-yl)amino]sulfonyl}benzamide] | 5 | 4 | 18.2 | 6.1
COc1cncc(NS(=O)(=O)c2ccccc2C(=O)N[C@@H](C)C(C)(C)C)c1 [Example 210, 2-{[(5-methoxypyridin-3-yl)amino]sulfonyl}-N-[(1S)-122-trimethylpropyl]benzamide] | 49 | 10 | 286 | 39.6
COc1cncc(NS(=O)(=O)c2ccccc2C(=O)NCc2ccc(F)cc2F)c1 [Example 212, N-(2,4-difluorobenzyl)-2-{[(5-methoxypyridin-3-yl)amino]sulfonyl}benzamide] | 8 | < 3 | 20.3 | 6
